Source: patent publication US20220387602A1, “BIFUNCTIONAL DEGRADERS AND THEIR METHODS OF USE” (NOVARTIS AG, priority 2019, published 2022)

Biological target: T1, CSK (Homo sapiens, UniProt P41240)
T1 construct: EGFP (after a Leu that replaces the STOP codon); expressed in transfected cells; host or cells: HEK293A (Invitrogen R70507), lentiviral transduction
Test: CSK-GFP protein abundance flow cytometry assay in HEK293A
Format: cell-based
Conditions: for CSK Amax: % protein remaining at the concentration of maximum degradation; for DC50: HEK293A CSK-GFP sensor cells, 24 h
Protocol: Degradation of BTK, CSK, ABL2, EPHA4 and YES1 was measured in HEK293A cells (Invitrogen R70507) expressing either BTK-GFP and RFP, CSK-GFP and mCherry, GFP-ABL2 and mCherry, EPHA4-GFP and mCherry, or YES1-GFP and mCherry from a stably integrated bicistronic BTK-GFP-iresRFP, CSK-GFP-CHYSEL-mCherry, GFP-ABL2-CHYSEL-mCherry, EPHA4-GFP-CHYSEL-mCherry, or YES1-GFP-CHYSEL-mCherry construct, respectively. Reduction of the GFP signal measured by flow cytometry served as readout for BTK, CSK, ABL2, EPHA4 and YES1 degradation after degrader treatment.
293A BTK-GFP-Ires-RFP, CSK-GFP-CHYSEL-mCherry, GFP-ABL2-CHYSEL-mCherry, EPHA4-GFP-CHYSEL-mCherry, or YES1-GFP-CHYSEL-mCherry sensor cells were generated by lentiviral vector transduction using the pLenti6-BTK-GFP-Ires-RFP, pLenti6-mCherryCHYSEL-EGFP-ABL2, pLenti6-CSK-GFP-CHYSEL-mCherry, pLenti6-EPHA4-GFP-CHYSEL-mCherry or pLenti6-YES1-GFP-CHYSEL-mCherry sensor construct described before. Lentiviral particles were produced in HEK293FT cells (Invitrogen R70007) by co-transfection of 500 ng pLenti6-BTK-GFP-Ires-RFP or pLenti6-IKZF3-GFP-Ires-RFP, 500 ng delta8.71 and 200 ng pVSVG diluted in 100 μL OptiMEM serum free medium (Invitrogen #11058-021) that was mixed after 5 min preincubation with 3 μL of Lipofectamine2000 (Invitrogen #11668-019) in 97 μL OptiMEM serum free medium. The mix was incubated for another 20 min at RT and then added on 1 mL of a freshly prepared suspension of HEK293FT cells in a well of a 6-well plate (concentration 1.2×10^6 cells/mL). 1 day after transfection, the medium was replaced with 1.5 mL of complete growth medium (DMEM high Glucose+10% FCS+1% L-Glutamine+1% NEAA+1% NaPyr.). 48 h post transfection supernatant containing viral transducing particles was collected and frozen at −80° C.
2 days before transduction with viral particles 1×10^5 HEK293A cells (Invitrogen R70507) were seeded in 2 mL growth medium in a well of a 6-well plate. Infection was performed with 90 μL of collected supernatant containing viral transducing particles in 1 mL medium including 8 µg/mL polybrene. 24 h post infection, stably transfected cells were selected with blasticidin at a concentration of 8 μg/mL referred to as stable HEK293A sensor cells.
Stable HEK293A sensor cells were maintained in complete growth medium (DMEM high Glucose+10% FCS+1% L-Glutamine+1% NEAA+1% NaPyr.) with passaging performed twice per week. […] GFP and RFP are read in the channels called FITC and PE, respectively.
Concentration response curves plotting relative reduction of the GFP signal (measured by flow cytometry) versus 10 compound concentrations (starting concentration 10 μM, 3 fold dilution steps) of the compounds allowed generation of DC50 values.

T1 sequence (P41240 whole entry): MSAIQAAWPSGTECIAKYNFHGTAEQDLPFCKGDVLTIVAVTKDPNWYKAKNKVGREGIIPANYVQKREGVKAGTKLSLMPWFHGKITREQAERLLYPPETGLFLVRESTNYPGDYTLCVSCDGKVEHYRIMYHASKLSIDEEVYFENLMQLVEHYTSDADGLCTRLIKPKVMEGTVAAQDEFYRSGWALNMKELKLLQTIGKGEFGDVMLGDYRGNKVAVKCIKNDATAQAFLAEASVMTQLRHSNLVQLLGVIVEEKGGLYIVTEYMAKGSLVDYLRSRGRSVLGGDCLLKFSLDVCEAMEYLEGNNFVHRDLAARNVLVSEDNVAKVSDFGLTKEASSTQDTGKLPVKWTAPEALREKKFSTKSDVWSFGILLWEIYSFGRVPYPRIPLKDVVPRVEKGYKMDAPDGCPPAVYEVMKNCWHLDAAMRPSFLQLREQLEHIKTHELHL

COc1ccc(C(=O)N2CCC3(CCN(C(=O)CCCCCCCN4CCN(c5cc(Nc6ncc(C(=O)Nc7c(C)cccc7Cl)s6)nc(C)n5)CC4)CC3)CC2)cc1N1CCC(=O)NC1=O [compound 06, N-(2-chloro-6-methylphenyl)-2-((6-(4-(8-(9-(3-(2,4-dioxotetrahydropyrimidin-1(2H)-yl)-4-methoxybenzoyl)-3,9-diazaspiro[5.5]undecan-3-yl)-8-oxooctyl)piperazin-1-yl)-2-methylpyrimidin-4-yl)amino)thiazole-5-carboxamide] was tested, and the “CSK Amax” value was 4% and the DC50 was 4 nM.
COc1ccc(C(=O)N2CCC3(CCN(C(=O)CN4CCN(c5cc(Nc6ncc(C(=O)Nc7c(C)cccc7Cl)s6)nc(C)n5)CC4)CC3)CC2)cc1N1CCC(=O)NC1=O [compound 07, N-(2-chloro-6-methylphenyl)-2-((6-(4-(2-(9-(3-(2,4-dioxotetrahydropyrimidin-1(2H)-yl)-4-methoxybenzoyl)-3,9-diazaspiro[5.5]undecan-3-yl)-2-oxoethyl)piperazin-1-yl)-2-methylpyrimidin-4-yl)amino)thiazole-5-carboxamide] was tested, and the “CSK Amax” value was 1% and the DC50 was 23 nM.
